Legend:
Type in all cases: cell-based
[1] = tested on: Human Colorectal Carcinoma cell line, HCT-116; assay: Relative cell viability, CCK-8, HCT-116; settings: 48 hours
Experimental: Human-derived breast cancer cell line MCF-7, human-derived lung cancer cell line A549, human-derived colorectal cancer cell line HCT-116, human pancreatic cancer cell line AsPC-1, glioblastoma cell line A172, and melanoma cell line Malme-3M were obtained from the Korean Cell Bank. gastric cancer cell line SNU-719, and bladder cancer cell line T24 were cultured in RPMI-1640 medium containing 10% FBS.
Following stabilization, the cells were harvested using Trypsin-EDTA treatment, centrifuged at 1,200 rpm for 3 minutes, the supernatant was removed, and the cells were resuspended in the same medium. They were then seeded into a 96-well plate (Costar 96-well cell culture plate, Corning) at 100 μL per well, and the conditions were adjusted as indicated in Table 5.
The cells were cultured in a 5% CO2 incubator at 37° C. for 24 hours, and after stabilization of the cells, each plate was washed with 200 μL of PBS per well and treated with 50 μL of culture medium per well.
After that, 10 μL of CCK-8 was added to each well, and the plate was incubated again at 37° C. in a 5% CO2 incubator for 2 hours.
(§1) In other words, when the survival rate of untreated cells (DMSO) is set at 100%, the relative cell survival rate in each group treated with the drug at different concentrations is indicated.

[2] = tested on: Human B Lymphocyte cell line, SU-DHL-8; assay: Relative cell viability, CCK-8, SU-DHL-8; settings: 48 hours
Experimental: Human-derived B lymphoma cell line SU-DHL-8 (Cat. #CRL-2961) purchased from ATCC was cultured in RPMI-1640 medium containing 10% FBS, 100 U/mL penicillin, and 100 μg/mL streptomycin.
The cell culture medium was then harvested, centrifuged at 1,300 rpm for 5 minutes, and the supernatant was removed. The cells were resuspended in the same medium and dispensed into a 96-well plate (Costar 96-well cell culture plate, Corning) at 90 μL per well, resulting in the conditions specified in Table 5.
Then, 10 μL of CCK-8 was added to each well, and the plates were incubated again at 37° C. in a 5% CO2 incubator for 4 hours.
as §1

[3] = tested on: T cells isolated from mouse spleen; assay: T cell proliferation inhibition, CFSE flow cytometry, CD3/CD28 activation; settings: CD3/CD28 activated, 3 days
Method in brief: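 Splenic T cells from 7-week-old C57BL/6 mice were MACS-isolated, CFSE-labelled, seeded at 2×10^5 cells/well and activated with anti-CD3/anti-CD28 (0.5 μg/mL each). Compound at 10 nM–50 μM (six levels, triplicate) was present for 3 days at 37 °C before flow cytometric readout of proliferation inhibition rate.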

CC1(C)CN(CCCCCCCCCCCCC(=O)Nc2nc(N)c3[nH]cnc3n2)CCO1 [Compound 11, 12-[4-(2,2-dimethylmorpholin-4-yl)]dodecyl-N-(6-aminopurine-2-yl)carboxamide]
Relative cell viability (%) ([1]; HCT-116, 1 μM): 21.36%
Relative cell viability (%) ([1]; HCT-116, 10 μM): 24.91%
Relative cell viability (%) ([1]; HCT-116, 30 μM): 24.78%
Relative cell viability (%) ([1]; HCT-116, 50 μM): 25.26%
Relative cell viability (%) ([2]; SU-DHL-8, 1 μM): 7.63%
Relative cell viability (%) ([2]; SU-DHL-8, 10 μM): 6.09%
Relative cell viability (%) ([2]; SU-DHL-8, 30 μM): 4.82%
Relative cell viability (%) ([2]; SU-DHL-8, 50 μM): 3.29%
Proliferation inhibition rate (%) ([3]; compound 100 nM): 100.00%
Proliferation inhibition rate (%) ([3]; compound 1 μM): 100.00%
Proliferation inhibition rate (%) ([3]; compound 10 μM): 100.00%
Proliferation inhibition rate (%) ([3]; compound 30 μM): 100.00%
Proliferation inhibition rate (%) ([3]; compound 50 μM): 100.00%

— US20260184700A1, “PDK1 REGULATORY COMPOUND AND COMPOSITION CONTAINING THE SAME” (PROVIBIO CO., LTD., priority 2024, published 2026)
